Tested on: erastin (10 μM)-treated HT-1080 cells
Test: Inhibition of death in erastin (10 μM)-treated HT-1080 cells, viability by Alamar Blue
Format: cell-based, human
Details: Homo sapiens, HT-1080
Experimental: Cell viability was typically assessed in 384-well format by Alamar Blue (Invitrogen) fluorescence (ex/em 530/590) measured on a Victor3 platereader (Perkin Elmer, Waltham, Mass.). In some experiments, Trypan Blue dye exclusion counting was performed using an automated cell counter (ViCell, Beckman-Coulter Inc., Brea, Calif.). Cell viability in test conditions is reported as a percentage relative to the negative control treatment.
Flow cytometry data was analyzed using FloJo (9.3.2, Tree Star, Inc., Ashland, Oreg.). Chemical structures were drawn using ChemDraw Ultra (Cambridgesoft, Cambridge, Mass.). Computational determination of log P (Slog P function) was performed using MOE 2010.10 (Chemical Computing Group, Montreal, […].). Viability data was analyzed using Excel (Microsoft Corp., […].). Summary data and heatmaps were generated using R. Dose-response curves were computed by 4-parameter logistic regression in Prism 5.0c (GraphPad Software). Images were manipulated using Photoshop CS4 and Illustrator CS4 (Adobe, San Jose, Calif.).
The ability of various compounds disclosed herein to inhibit death in erastin (10 μM)-treated HT-1080 cells were tested. Cell viability was assessed by Alamar Blue. EC50 values (nM) were computed from dose response curves.

| SMILES | EC50 |
| --- | --- |
| Nc1ccccc1NC1CCCCC1 [SRS8-75, N1-cyclohexylbenzene-1,2-diamine] | 0.33 µM |
| NCCOCCOC(=O)c1ccc(NC2CCCCC2)c(N)c1 [SRS8-43, 2-(2-aminoethoxy)ethyl 3-amino-4-(cyclohexylamino)benzoate] | 0.42 µM |

Same assay, conditions: Homo sapiens, HT-1080, inhibition of death in erastin (10 μM)-treated HT-1080 cells; Alamar Blue; from dose response curves

| SMILES | EC50 |
| --- | --- |
| CCOC(=O)c1ccc(NC23CC4CC(CC(C4)C2)C3)c(NCc2ccncc2)c1 [SRS15-24, ethyl 4-(1-adamantylamino)-3-((pyridin-4-ylmethyl)amino)-benzoate] | 0.009 µM |
| CCOC(=O)c1ccc(Cl)c(N)c1 [SRS8-62, ethyl 3-amino-4-chlorobenzoate] | > 10 µM |
| CCOC(=O)c1ccc(CNc2cc(C(=O)OCC)ccc2NC2CCCCC2)cc1 [SRS12-84, ethyl 4-(cyclohexylamino)-3-(4-(ethoxycarbonyl)benzylamino)-benzoate] | 0.052 µM |
| CCOC(=O)c1ccc(NC2C3CC4CC(C3)CC2C4)c(NCc2ccncc2)c1 (stereo not shown) [SRS15-21, ethyl 4-(2-adamantylamino)-3-((pyridin-4-ylmethyl)amino)-benzoate] | < 0.005 µM |
| CCOC(=O)c1ccc(NC2CCCCC2)c(NCc2ccccn2)c1 [SRS12-46, ethyl 4-(cyclohexylamino)-3-(pyridin-2-ylmethylamino)-benzoate] | 0.032 µM |
| CCOC(=O)c1ccc(NC23CC4CC(CC(C4)C2)C3)c(NCc2cncnc2)c1 [SRS15-25, ethyl 4-(1-adamantylamino)-3-(pyrimidin-5-ylmethylamino)-benzoate] | 0.054 µM |
| CCOC(=O)c1ccc(NC2CCNCC2)c(N)c1 [SRS8-81, ethyl 3-amino-4-(piperidin-4-ylamino)benzoate] | 0.35 µM |
| CCOC(=O)c1ccc(NC2CCCCCC2)c(N)c1 [SRS8-90, ethyl 3-amino-4-(cycloheptylamino)benzoate] | 0.13 µM |
| CCOC(=O)c1cc(N)c(NC2CCCCC2)cc1F [SRS14-55, ethyl 5-amino-4-(cyclohexylamino)-2-fluorobenzoate] | 0.104 µM |
| CCOC(=O)c1ccc(NC2CCCCC2)c(NCc2ccc(C(=O)OC)cc2)c1 [SRS12-69, ethyl 4-(cyclohexylamino)-3-(4-(methoxycarbonyl)-benzylamino)benzoate] | 0.058 µM |
| CCOC(=O)c1ccc(NC2CCC(C(C)(C)C)CC2)c(NCc2cncnc2)c1 (stereo not shown) [SRS13-37, ethyl 4-(4-tert-butylcyclohexylamino)-3-(pyrimidin-5-ylmethylamino)benzoate] | 0.015 µM |
| CCOC(=O)c1ccc(NC2CCCCCCC2)c(N(C)C)c1 [SRS9-01, ethyl 4-(cyclooctylamino)-3-(dimethylamino)benzoate] | 3.46 µM |
| CCOC(=O)c1cnc(NC2CCCCC2)c(N)c1 [SRS14-86, ethyl 5-amino-6-(cyclohexylamino)pyridine-3-carboxylate] | 0.544 µM |
| CCOC(=O)c1ccc(NC2CCCCC2)c(NCc2ccc(F)c(C#N)c2)c1 [SRS12-54, ethyl 3-(3-cyano-4-fluorobenzylamino)-4-(cyclohexylamino)-benzoate] | 0.158 µM |
| CCOC(=O)c1cnc(NC2CCCCC2)c(NCc2ccncc2)c1 [SRS14-92, ethyl 6-(cyclohexylamino)-5-(pyridin-4-ylmethylamino)pyridine-3-carboxylate] | 0.194 µM |
| CCOC(=O)c1ccc(NC2CCCCCCC2)c(C(=O)OC(C)(C)C)c1 [SRS8-91, ethyl 3-(tert-butoxycarbonyl)-4-(cyclooctylamino)benzoate] | > 10 µM |
| CCOC(=O)c1ccc(NC2CCC2)c(N)c1 [SRS8-71, ethyl 3-amino-4-(cyclobutylamino)benzoate] | 0.265 µM |
| CC(C)(C)OC(=O)CCOCCOC(=O)c1ccc(NC2CCCCC2)c(N)c1 [SRS8-37, 2-(2-(tert-butoxycarbonyl)ethoxy)ethyl 3-amino-4-(cyclohexylamino)benzoate] | 0.16 µM |
| CCOC(=O)c1cc(N)c(NC2CCCCC2)cc1C [SRS14-58, ethyl 5-amino-4-(cyclohexylamino)-2-methylbenzoate] | 0.028 µM |
| CCCCCCCCN(CCCCCCCC)c1ccc(C(=O)OCC)cc1N [SRS12-12, ethyl 3-amino-4-(dioctylamino)benzoate] | > 10 µM |
